Biological target: PAPD5 enzyme (Homo sapiens, UniProt Q8NDF8)
Assay: PAPD5 assay (AMP incorporation onto 3'-terminus of RNA substrate, fluorescence quench)
Assay type: biochemical
Conditions: PAPD5 protein 0.3 nM, ATP 50 μM, 30 minutes preincubation, room temperature; read-out: Potency PAPD5 IC50
In short: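 Enzyme at 0.3 nM with 50 μM ATP, pH 7.3 HEPES buffer, preincubated with compound 30 minutes at room temperature; 5 nM 5′-fluorescein RNA substrate and 20 nM TAMRA quench probe then added. Initial rates from kinetic fluorescein decrease over ~90 minutes; IC50 by four-parameter fit.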

Sequence of PAPD5 enzyme (Q8NDF8 whole entry): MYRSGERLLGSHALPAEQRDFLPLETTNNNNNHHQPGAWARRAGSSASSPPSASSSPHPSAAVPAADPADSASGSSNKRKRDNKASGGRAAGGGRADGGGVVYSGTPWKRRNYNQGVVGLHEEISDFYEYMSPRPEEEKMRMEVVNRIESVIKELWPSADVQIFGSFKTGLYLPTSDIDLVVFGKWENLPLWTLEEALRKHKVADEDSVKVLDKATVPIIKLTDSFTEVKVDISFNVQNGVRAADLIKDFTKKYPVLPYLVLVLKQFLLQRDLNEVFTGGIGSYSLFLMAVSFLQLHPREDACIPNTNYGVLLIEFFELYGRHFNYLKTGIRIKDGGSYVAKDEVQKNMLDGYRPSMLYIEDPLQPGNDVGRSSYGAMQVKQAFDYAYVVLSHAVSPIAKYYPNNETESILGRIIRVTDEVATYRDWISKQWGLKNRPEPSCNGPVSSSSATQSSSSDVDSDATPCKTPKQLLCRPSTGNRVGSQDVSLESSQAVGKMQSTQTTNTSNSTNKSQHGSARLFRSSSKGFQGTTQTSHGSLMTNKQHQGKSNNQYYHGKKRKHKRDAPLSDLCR

IC50, ≤ 1 µM:
CC(C)Cn1cc(C(=O)O)c(=O)c2cc(Cl)c(N3Cc4cccnc4C3)nc21 [Example 34, 6-chloro-7-(5,7-dihydro-6H-pyrrolo[3,4-b]pyridin-6-yl)-1-isobutyl-4-oxo-1,4-dihydro-1,8-naphthyridine-3-carboxylic acid]
Cc1cc(N2CC(N(C)C)C2)ncc1-n1cc(C(=O)O)c(=O)c2cc(Cl)c(N3Cc4cccnc4C3)cc21 [Example 25, 6-chloro-7-(5,7-dihydro-6H-pyrrolo[3,4-b]pyridin-6-yl)-1-(6-(3-(dimethylamino)azetidin-1-yl)-4-methylpyridin-3-yl)-4-oxo-1,4-dihydroquinoline-3-carboxylic acid]
Cc1cc(NC(=O)OC(C)(C)C)ncc1-n1cc(C(=O)O)c(=O)c2cc(Cl)c(N3Cc4cccnc4C3)cc21 [Example 4, 1-(6-{[(tert-butoxy)carbonyl]amino}-4-methylpyridin-3-yl)-6-chloro-4-oxo-7-{5H,6H,7H-pyrrolo[3,4-b]pyridin-6-yl}-1,4-dihydroquinoline-3-carboxylic acid]
CCC(=O)Nc1cc(C)c(-n2cc(C(=O)O)c(=O)c3cc(Cl)c(N4Cc5cccnc5C4)cc32)cn1 [Example 82, 6-chloro-7-(5,7-dihydro-6H-pyrrolo[3,4-b]pyridin-6-yl)-1-(4-methyl-6-propionamidopyridin-3-yl)-4-oxo-1,4-dihydroquinoline-3-carboxylic acid]
CNc1cc(C)c(-n2cc(C(=O)O)c(=O)c3cc(F)c(N4Cc5cccnc5C4)cc32)cn1 [Example 87, 7-(5,7-dihydro-6H-pyrrolo[3,4-b]pyridin-6-yl)-6-fluoro-1-(4-methyl-6-(methylamino)pyridin-3-yl)-4-oxo-1,4-dihydroquinoline-3-carboxylic acid]
Cc1cc(NC(=O)OC(C)(C)C)ncc1-n1cc(C(=O)O)c(=O)c2ccc(N3Cc4cccnc4C3)c(F)c21 [Example 156, 1-(6-((tert-butoxycarbonyl)amino)-4-methylpyridin-3-yl)-7-(5,7-dihydro-6H-pyrrolo[3,4-b]pyridin-6-yl)-8-fluoro-4-oxo-1,4-dihydroquinoline-3-carboxylic acid]
O=C(O)c1cn(-c2ccc(O)cc2)c2cc(N3Cc4ccncc4C3)c(F)cc2c1=O [Example 19, 7-(1,3-dihydro-2H-pyrrolo[3,4-c]pyridin-2-yl)-6-fluoro-1-(4-hydroxyphenyl)-4-oxo-1,4-dihydroquinoline-3-carboxylic acid]
N#Cc1cc2c(=O)c(C(=O)O)cn(-c3ccc(N)nc3)c2cc1N1Cc2cccnc2C1 [Example 48, 1-(6-aminopyridin-3-yl)-6-cyano-7-(5,7-dihydro-6H-pyrrolo[3,4-b]pyridin-6-yl)-4-oxo-1,4-dihydroquinoline-3-carboxylic acid]
CNc1cc(C)c(-n2cc(C(=O)O)c(=O)c3cc(Cl)c(N4Cc5cccnc5C4)nc32)cn1 [Example 170, 6-chloro-7-(5,7-dihydro-6H-pyrrolo[3,4-b]pyridin-6-yl)-1-(4-methyl-6-(methylamino)pyridin-3-yl)-4-oxo-1,4-dihydro-1,8-naphthyridine-3-carboxylic acid]
CC(c1ccccc1)n1cc(C(=O)O)c(=O)c2cc(Cl)c(N3Cc4cccnc4C3)nc21 (stereo not drawn) [Example 43, 6-chloro-7-(5,7-dihydro-6H-pyrrolo[3,4-b]pyridin-6-yl)-4-oxo-1-(1-phenylethyl)-1,4-dihydro-1,8-naphthyridine-3-carboxylic acid]
COc1ccc(-c2ccn(-c3cc4c(cc3F)c(=O)c(C(=O)O)cn4-c3ccc(O)cc3F)n2)cc1 [Example 39, 6-fluoro-1-(2-fluoro-4-hydroxyphenyl)-7-(3-(4-methoxyphenyl)-1H-pyrazol-1-yl)-4-oxo-1,4-dihydroquinoline-3-carboxylic acid]
CN(C)C(=O)N1CCC(n2cc(C(=O)O)c(=O)c3cc(Cl)c(N4Cc5cccnc5C4)cc32)CC1 [Example 130, 6-chloro-7-(5,7-dihydro-6H-pyrrolo[3,4-b]pyridin-6-yl)-1-(1-(dimethylcarbamoyl)piperidin-4-yl)-4-oxo-1,4-dihydroquinoline-3-carboxylic acid]
O=C(O)c1cn(CC2CCC2)c2nc(N3Cc4cccnc4C3)c(Cl)cc2c1=O [Example 6, 6-chloro-1-(cyclobutylmethyl)-4-oxo-7-{5H,6H,7H-pyrrolo[3,4-b]pyridin-6-yl}-1,4-dihydro-1,8-naphthyridine-3-carboxylic acid]
N#Cc1cc2c(=O)c(C(=O)O)cn(-c3cnccn3)c2nc1N1Cc2cccnc2C1 [Example 45, 6-cyano-7-(5,7-dihydro-6H-pyrrolo[3,4-b]pyridin-6-yl)-4-oxo-1-(pyrazin-2-yl)-1,4-dihydro-1,8-naphthyridine-3-carboxylic acid]
O=C(O)c1cn(-c2cnccn2)c2nc(N3Cc4cccnc4C3)c(Cl)cc2c1=O [Example 2, 6-chloro-4-oxo-1-(pyrazin-2-yl)-7{5H,6H,7H pyrrolo[3,4-b]pyridin-6-yl}-1,4-dihydro-1,8-naphthyridine-3-carboxylic acid]
Cc1cc(NC(=O)OC(C)(C)C)ncc1-n1cc(C(=O)O)c(=O)c2cc(Cl)c(N3CCc4cnccc4C3)nc21 [Example 196, 1-(6-((tert-butoxycarbonyl)amino)-4-methylpyridin-3-yl)-6-chloro-7-(3,4-dihydro-2,6-naphthyridin-2(1H)-yl)-4-oxo-1,4-dihydro-1,8-naphthyridine-3-carboxylic acid]
CC(=O)Nc1cc(C)c(-n2cc(C(=O)O)c(=O)c3cc(Cl)c(N4Cc5cccnc5C4)cc32)cn1 [Example 81, 1-(6-acetamido-4-methylpyridin-3-yl)-6-chloro-7-(5,7-dihydro-6H-pyrrolo[3,4-b]pyridin-6-yl)-4-oxo-1,4-dihydroquinoline-3-carboxylic acid]
COCCNc1ccc(-n2cc(C(=O)O)c(=O)c3cc(C#N)c(N4Cc5cccnc5C4)cc32)cn1 [Example 50, 6-cyano-7-(5,7-dihydro-6H-pyrrolo[3,4-b]pyridin-6-yl)-1-(6-((2-methoxyethyl)amino)pyridin-3-yl)-4-oxo-1,4-dihydroquinoline-3-carboxylic acid]
N#Cc1cc2c(=O)c(C(=O)O)cn(-c3ccc(O)cc3F)c2cc1N1Cc2cccnc2C1 [Example 38, 6-cyano-7-(5,7-dihydro-6H-pyrrolo[3,4-b]pyridin-6-yl)-1-(2-fluoro-4-hydroxyphenyl)-4-oxo-1,4-dihydroquinoline-3-carboxylic acid]
CC(=O)N1CCC(n2cc(C(=O)O)c(=O)c3cc(Cl)c(N4Cc5cccnc5C4)cc32)CC1 [Example 126, 1-(1-acetylpiperidin-4-yl)-6-chloro-7-(5,7-dihydro-6H-pyrrolo[3,4-b]pyridin-6-yl)-4-oxo-1,4-dihydroquinoline-3-carboxylic acid]
N#Cc1cc2c(=O)c(C(=O)O)cn(-c3cnccn3)c2cc1N1Cc2cccnc2C1 [Example 47, 6-cyano-7-(5,7-dihydro-6H-pyrrolo[3,4-b]pyridin-6-yl)-4-oxo-1-(pyrazin-2-yl)-1,4-dihydroquinoline-3-carboxylic acid]

Reference: US20240376100A1 (Redona Therapeutics, Inc., priority 2021, published 2024)
